Legend:
Assay in all cases: Kinase profiling
Assay type in all cases: biochemical
p38beta = biological target: T1, p38beta (Homo sapiens, UniProt Q15759); details: for inhibition at 10 µM: read-out: inhibition of p38β
T1 construct: purchased ProQinase (Freiburg, Germany)
Description: (§1) The analysis was performed by ProQinase (Freiburg, Germany).

RAF1 YDYD = biological target: T2, RAF1 YDYD (Homo sapiens, UniProt P04049, Y340D/Y341D)
T2 construct: purchased ProQinase (Freiburg, Germany)
Description: as §1

ACVR2B = biological target: T3, ACVR2B (Homo sapiens, UniProt Q13705)
T3 construct: purchased ProQinase (Freiburg, Germany)
T3 sequence (Q13705 19-512): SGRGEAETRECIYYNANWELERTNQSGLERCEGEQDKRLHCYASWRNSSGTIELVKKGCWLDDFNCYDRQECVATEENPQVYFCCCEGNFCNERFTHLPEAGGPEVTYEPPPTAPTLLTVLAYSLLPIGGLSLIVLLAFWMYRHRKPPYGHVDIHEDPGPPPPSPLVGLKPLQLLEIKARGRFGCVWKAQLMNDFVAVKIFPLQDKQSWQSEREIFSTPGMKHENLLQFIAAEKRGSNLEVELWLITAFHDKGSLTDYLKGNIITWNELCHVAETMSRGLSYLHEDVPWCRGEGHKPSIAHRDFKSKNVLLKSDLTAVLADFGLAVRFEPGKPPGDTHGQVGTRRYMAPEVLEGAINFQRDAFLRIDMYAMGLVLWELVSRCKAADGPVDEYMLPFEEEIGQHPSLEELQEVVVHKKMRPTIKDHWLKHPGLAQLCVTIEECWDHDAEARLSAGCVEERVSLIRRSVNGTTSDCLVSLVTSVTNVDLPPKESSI
Description: as §1

TIE2 = biological target: T4, TIE2 (Homo sapiens, UniProt Q02763)
T4 construct: purchased ProQinase (Freiburg, Germany)
T4 sequence (Q02763 23-1124): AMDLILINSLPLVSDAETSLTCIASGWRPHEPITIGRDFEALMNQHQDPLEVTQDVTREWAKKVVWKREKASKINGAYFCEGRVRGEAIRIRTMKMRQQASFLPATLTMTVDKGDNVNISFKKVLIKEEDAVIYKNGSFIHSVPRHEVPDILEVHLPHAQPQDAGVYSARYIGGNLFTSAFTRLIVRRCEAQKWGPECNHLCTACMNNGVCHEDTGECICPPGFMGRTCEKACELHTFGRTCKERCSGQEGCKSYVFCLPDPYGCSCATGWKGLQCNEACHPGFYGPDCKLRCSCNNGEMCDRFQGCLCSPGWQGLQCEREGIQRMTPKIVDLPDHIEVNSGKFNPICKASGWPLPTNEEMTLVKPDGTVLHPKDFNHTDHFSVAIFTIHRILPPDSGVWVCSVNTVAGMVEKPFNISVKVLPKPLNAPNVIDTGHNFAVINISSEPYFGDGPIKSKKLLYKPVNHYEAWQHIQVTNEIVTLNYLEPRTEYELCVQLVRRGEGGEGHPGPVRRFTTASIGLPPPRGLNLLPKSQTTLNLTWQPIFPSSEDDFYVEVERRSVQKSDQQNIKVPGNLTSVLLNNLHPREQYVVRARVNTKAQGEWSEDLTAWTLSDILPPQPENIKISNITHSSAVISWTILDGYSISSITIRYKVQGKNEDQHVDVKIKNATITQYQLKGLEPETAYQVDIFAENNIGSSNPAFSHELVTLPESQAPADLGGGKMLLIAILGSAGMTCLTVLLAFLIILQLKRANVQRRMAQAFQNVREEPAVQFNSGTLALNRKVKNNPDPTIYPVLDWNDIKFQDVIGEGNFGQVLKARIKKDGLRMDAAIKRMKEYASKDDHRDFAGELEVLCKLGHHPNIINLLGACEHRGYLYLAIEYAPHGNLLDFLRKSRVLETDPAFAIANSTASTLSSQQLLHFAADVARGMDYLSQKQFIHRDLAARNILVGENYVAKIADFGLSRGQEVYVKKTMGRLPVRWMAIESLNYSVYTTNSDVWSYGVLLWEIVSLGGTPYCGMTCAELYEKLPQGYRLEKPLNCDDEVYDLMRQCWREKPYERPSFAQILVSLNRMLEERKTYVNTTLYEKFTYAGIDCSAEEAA
Description: as §1

STK33 = biological target: T5, STK33 (Homo sapiens, UniProt Q9BYT3)
T5 construct: purchased ProQinase (Freiburg, Germany)
Description: as §1

SIK1 = biological target: T6, SIK1 (Homo sapiens, UniProt P57059)
T6 construct: purchased ProQinase (Freiburg, Germany)
T6 sequence (P57059 whole entry): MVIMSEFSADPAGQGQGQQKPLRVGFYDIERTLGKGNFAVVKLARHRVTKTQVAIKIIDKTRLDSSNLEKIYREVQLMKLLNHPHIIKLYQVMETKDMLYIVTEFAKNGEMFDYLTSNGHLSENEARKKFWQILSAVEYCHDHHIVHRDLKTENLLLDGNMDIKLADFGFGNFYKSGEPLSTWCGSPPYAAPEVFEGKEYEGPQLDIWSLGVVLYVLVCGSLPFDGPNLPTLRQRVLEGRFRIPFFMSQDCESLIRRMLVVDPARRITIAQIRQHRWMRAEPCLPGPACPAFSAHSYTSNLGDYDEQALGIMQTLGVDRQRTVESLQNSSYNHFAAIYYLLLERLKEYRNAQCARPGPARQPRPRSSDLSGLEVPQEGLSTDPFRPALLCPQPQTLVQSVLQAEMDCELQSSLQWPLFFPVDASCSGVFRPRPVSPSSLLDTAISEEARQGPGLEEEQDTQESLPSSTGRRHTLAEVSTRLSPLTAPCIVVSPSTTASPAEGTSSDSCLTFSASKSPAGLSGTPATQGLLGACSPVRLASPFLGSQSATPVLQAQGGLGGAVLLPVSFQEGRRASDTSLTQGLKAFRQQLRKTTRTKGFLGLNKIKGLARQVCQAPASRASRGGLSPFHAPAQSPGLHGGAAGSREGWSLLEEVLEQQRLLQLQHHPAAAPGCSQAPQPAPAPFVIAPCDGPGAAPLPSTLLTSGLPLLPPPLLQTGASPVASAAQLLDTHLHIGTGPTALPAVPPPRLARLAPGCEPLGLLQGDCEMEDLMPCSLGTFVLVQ
Description: as §1

KIT = biological target: T7, KIT (Homo sapiens, UniProt P10721)
T7 construct: purchased ProQinase (Freiburg, Germany)
T7 sequence (P10721 26-976): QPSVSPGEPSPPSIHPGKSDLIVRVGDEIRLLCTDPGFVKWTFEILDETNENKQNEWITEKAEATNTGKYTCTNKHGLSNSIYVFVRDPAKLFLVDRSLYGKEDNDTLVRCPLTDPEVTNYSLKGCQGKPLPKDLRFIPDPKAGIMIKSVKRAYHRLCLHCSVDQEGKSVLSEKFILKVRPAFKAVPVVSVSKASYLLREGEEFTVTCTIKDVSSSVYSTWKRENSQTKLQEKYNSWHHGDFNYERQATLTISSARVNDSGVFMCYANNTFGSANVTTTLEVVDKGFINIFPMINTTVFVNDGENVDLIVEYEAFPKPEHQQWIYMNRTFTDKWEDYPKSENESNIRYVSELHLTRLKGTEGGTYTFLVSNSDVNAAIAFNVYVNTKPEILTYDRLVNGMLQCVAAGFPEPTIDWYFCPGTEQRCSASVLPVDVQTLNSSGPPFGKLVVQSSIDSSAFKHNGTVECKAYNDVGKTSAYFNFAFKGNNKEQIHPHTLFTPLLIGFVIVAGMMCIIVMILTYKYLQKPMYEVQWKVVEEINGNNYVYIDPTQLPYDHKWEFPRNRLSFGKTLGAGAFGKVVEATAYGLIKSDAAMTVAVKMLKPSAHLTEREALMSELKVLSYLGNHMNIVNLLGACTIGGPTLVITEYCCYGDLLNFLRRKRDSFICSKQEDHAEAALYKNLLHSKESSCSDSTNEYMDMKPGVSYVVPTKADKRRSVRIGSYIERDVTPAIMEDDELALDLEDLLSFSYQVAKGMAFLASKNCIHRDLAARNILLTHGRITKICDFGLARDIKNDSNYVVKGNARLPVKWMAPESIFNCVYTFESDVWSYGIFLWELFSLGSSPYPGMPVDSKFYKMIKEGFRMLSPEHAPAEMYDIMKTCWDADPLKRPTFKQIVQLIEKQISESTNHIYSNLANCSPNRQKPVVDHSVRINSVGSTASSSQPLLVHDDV
Description: as §1

CDK18/CycY = biological target: T8, CDK18/CycY (Homo sapiens, UniProt Q07002)
T8 construct: purchased ProQinase (Freiburg, Germany)
Description: as §1

ABL1 = biological target: T9, ABL1 (Homo sapiens, UniProt P00519)
T9 construct: purchased ProQinase (Freiburg, Germany)
T9 sequence (P00519 whole entry): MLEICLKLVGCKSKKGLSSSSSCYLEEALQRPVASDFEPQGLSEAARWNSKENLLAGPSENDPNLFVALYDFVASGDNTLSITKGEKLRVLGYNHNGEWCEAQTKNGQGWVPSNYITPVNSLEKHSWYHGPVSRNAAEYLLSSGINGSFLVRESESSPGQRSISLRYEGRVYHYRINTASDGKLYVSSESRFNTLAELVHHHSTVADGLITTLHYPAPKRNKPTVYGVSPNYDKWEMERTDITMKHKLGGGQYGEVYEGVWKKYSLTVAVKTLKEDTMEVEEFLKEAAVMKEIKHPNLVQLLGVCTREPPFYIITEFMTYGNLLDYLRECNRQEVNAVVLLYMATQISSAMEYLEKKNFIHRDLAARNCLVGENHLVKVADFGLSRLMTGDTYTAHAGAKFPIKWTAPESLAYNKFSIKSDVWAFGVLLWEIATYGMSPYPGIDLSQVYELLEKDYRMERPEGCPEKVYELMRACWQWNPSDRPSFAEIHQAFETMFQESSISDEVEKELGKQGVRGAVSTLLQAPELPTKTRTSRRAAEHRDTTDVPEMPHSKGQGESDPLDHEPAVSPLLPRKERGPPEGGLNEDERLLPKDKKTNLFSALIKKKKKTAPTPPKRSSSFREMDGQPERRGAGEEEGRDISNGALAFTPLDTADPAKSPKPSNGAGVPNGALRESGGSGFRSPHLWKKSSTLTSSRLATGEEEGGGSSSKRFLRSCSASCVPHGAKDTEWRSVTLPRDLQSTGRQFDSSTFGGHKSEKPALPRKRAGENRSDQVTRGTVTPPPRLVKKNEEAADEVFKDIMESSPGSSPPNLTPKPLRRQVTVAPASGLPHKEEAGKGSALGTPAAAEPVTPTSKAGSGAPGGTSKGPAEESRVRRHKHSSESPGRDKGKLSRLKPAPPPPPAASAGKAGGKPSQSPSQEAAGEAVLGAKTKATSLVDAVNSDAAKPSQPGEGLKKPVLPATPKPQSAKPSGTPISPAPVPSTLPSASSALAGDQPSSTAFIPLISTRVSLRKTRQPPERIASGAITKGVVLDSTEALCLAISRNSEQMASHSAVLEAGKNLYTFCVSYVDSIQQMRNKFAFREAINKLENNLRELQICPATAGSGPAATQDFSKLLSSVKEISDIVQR
Description: as §1

ITK = biological target: T10, ITK (Homo sapiens, UniProt Q08881)
T10 construct: purchased ProQinase (Freiburg, Germany)
T10 sequence (Q08881 1-620): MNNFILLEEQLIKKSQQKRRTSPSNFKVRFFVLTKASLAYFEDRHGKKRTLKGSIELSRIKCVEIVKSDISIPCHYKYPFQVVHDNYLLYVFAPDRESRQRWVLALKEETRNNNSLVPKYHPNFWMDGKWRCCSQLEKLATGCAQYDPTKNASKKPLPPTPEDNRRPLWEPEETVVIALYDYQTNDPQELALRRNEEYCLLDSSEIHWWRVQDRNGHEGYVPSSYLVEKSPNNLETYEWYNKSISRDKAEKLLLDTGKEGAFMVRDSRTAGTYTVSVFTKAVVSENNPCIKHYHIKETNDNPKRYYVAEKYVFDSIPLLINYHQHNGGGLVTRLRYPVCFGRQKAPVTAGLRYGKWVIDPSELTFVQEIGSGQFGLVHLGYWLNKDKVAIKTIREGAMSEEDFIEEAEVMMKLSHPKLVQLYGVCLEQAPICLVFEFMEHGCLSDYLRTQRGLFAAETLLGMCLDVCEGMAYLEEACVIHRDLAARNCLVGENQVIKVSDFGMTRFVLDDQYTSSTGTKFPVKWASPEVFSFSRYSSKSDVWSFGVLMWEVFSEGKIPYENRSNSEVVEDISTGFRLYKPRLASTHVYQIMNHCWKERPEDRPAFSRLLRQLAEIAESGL
Description: as §1

SGK3 = biological target: T11, SGK3 (Homo sapiens, UniProt Q96BR1)
T11 construct: purchased ProQinase (Freiburg, Germany)
T11 sequence (Q96BR1 1-496): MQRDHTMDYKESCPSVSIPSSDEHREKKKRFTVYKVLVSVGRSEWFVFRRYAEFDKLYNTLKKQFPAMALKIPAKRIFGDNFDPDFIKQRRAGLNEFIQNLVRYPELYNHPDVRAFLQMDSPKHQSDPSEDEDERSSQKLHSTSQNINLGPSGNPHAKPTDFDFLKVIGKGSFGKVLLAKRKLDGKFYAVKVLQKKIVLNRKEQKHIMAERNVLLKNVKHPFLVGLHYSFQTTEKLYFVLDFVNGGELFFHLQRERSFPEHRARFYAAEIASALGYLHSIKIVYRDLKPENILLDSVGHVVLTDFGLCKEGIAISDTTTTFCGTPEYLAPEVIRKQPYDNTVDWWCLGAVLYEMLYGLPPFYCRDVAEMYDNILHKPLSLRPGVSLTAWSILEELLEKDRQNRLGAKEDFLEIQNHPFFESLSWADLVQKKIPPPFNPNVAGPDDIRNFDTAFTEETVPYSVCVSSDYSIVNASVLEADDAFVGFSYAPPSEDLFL
Description: as §1

MUSK = biological target: T12, MUSK (Homo sapiens, UniProt O15146)
T12 construct: purchased ProQinase (Freiburg, Germany)
T12 sequence (O15146 24-869): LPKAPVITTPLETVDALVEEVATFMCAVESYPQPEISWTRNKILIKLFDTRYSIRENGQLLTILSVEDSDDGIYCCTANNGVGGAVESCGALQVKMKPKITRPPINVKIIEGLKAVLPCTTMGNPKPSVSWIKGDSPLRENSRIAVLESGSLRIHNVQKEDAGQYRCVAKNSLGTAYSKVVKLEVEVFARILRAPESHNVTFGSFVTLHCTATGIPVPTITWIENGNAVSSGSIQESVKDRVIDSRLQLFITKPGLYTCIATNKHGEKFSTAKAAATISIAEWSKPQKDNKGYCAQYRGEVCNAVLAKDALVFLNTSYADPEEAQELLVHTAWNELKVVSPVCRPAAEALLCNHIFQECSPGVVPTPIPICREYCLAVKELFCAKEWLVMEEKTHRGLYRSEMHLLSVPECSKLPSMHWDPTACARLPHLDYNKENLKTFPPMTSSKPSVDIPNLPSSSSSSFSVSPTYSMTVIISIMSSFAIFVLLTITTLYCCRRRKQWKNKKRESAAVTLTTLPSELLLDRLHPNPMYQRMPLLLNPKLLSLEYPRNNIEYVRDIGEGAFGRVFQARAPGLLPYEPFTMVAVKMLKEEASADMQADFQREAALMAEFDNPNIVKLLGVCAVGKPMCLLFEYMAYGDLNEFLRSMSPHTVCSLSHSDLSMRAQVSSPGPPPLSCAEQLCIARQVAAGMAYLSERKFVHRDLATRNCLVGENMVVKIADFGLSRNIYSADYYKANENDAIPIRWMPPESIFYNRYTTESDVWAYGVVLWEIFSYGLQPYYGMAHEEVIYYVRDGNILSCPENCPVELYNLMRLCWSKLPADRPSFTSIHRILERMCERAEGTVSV
Description: as §1

MAP3K11 = biological target: T13, MAP3K11 (Homo sapiens, UniProt Q16584)
T13 construct: purchased ProQinase (Freiburg, Germany)
Description: as §1

T1 sequence (Q15759 whole entry): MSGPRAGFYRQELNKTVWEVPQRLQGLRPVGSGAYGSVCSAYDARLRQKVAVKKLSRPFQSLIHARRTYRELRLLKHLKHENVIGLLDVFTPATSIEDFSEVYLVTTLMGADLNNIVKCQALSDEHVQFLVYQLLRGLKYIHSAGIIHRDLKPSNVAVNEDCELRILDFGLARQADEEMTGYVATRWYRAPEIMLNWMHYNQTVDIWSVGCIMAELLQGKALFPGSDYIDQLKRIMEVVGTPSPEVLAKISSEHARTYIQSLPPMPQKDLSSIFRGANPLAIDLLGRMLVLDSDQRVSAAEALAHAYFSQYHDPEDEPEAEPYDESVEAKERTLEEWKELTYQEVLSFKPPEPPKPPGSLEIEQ

SMILES	inhibition at 10 µM (p38beta)	Residual activity (p38beta; 1.0E-05 M)	Residual activity (p38beta; 1.0E-06 M)	inhibition at 10 µM (RAF1 YDYD)	Residual activity (RAF1 YDYD; 1.0E-05 M)	Residual activity (RAF1 YDYD; 1.0E-06 M)	Residual activity (ACVR2B; 1.0E-05 M)	Residual activity (ACVR2B; 1.0E-06 M)	Residual activity (TIE2; 1.0E-05 M)	Residual activity (TIE2; 1.0E-06 M)	Residual activity (STK33; 1.0E-05 M)	Residual activity (STK33; 1.0E-06 M)	Residual activity (SIK1; 1.0E-05 M)	Residual activity (SIK1; 1.0E-06 M)	Residual activity (KIT; 1.0E-05 M)	Residual activity (KIT; 1.0E-06 M)	Residual activity (CDK18/CycY; 1.0E-05 M)	Residual activity (CDK18/CycY; 1.0E-06 M)	Residual activity (ABL1; 1.0E-05 M)	Residual activity (ABL1; 1.0E-06 M)	further results
O=C(Cc1ccccc1)Nc1ccc(F)c(Nc2ccc3c(c2)CCCCC3=O)c1 [Compound 100]	≥ 50%	50 % of control	71 % of control	≥ 50%	3 % of control	14 % of control	169 % of control	95 % of control	66 % of control	96 % of control	96 % of control	109 % of control	86 % of control	84 % of control	78 % of control	87 % of control	88 % of control	93 % of control	88 % of control	90 % of control	inhibition of RAF1 (RAF1 YDYD; 1 µM): inhibited considerably; Residual activity (ITK; 1.0E-05 M): 75 % of control; Residual activity (ITK; 1.0E-06 M): 94 % of control; Residual activity (SGK3; 1.0E-05 M): 98 % of control; Residual activity (SGK3; 1.0E-06 M): 103 % of control; Residual activity (MUSK; 1.0E-05 M): 93 % of control; Residual activity (MUSK; 1.0E-06 M): 98 % of control; Residual activity (MAP3K11; 1.0E-05 M): 118 % of control; Residual activity (MAP3K11; 1.0E-06 M): 109 % of control
O=C(Nc1ccc(F)c(Nc2ccc3c(c2)CCCCC3=O)c1)c1cccc(F)c1 [Compound 109]	≥ 50%	2 % of control	3 % of control	≥ 50%	12 % of control	36 % of control	167 % of control	104 % of control	78 % of control	87 % of control	99 % of control	93 % of control	83 % of control	89 % of control	78 % of control	88 % of control	98 % of control	91 % of control	91 % of control	91 % of control	inhibition at 1 µM (RAF1 YDYD; 1 µM): ≥ 50%; Residual activity (ITK; 1.0E-05 M): 82 % of control; Residual activity (ITK; 1.0E-06 M): 93 % of control; Residual activity (SGK3; 1.0E-05 M): 97 % of control; Residual activity (SGK3; 1.0E-06 M): 96 % of control; Residual activity (MUSK; 1.0E-05 M): 83 % of control; Residual activity (MUSK; 1.0E-06 M): 97 % of control; Residual activity (MAP3K11; 1.0E-05 M): 110 % of control; Residual activity (MAP3K11; 1.0E-06 M): 108 % of control

From article PMC9030254, “Target Hopping from Protein Kinases to PXR: Identification of Small-Molecule Protein Kinase Inhibitors as Selective Modulators of Pregnane X Receptor from TüKIC Library” (Cells, 2022)
